SMILES: CCCCc1oc2ccc(NS(C)(=O)=O)cc2c1C(=O)c1ccc(OCCCN(CCCC)CCCC)cc1.Cl
- solubility (mole fraction) (in ethanol, 298.15 K): 0.00418
- solubility (mole fraction) (in ethanol, 303.15 K): 0.00461
- solubility (mole fraction) (in ethanol, 308.15 K): 0.00535
- solubility (mole fraction) (in ethanol, 313.15 K): 0.00818
- solubility (mole fraction) (in ethanol, 318.15 K): 0.0159
- solubility (mole fraction) (in ethanol, 323.15 K): 0.0362
- solubility (mole fraction) (in isopropanol, 298.15 K): 0.000681
- solubility (mole fraction) (in isopropanol, 303.15 K): 0.000838
- solubility (mole fraction) (in isopropanol, 308.15 K): 0.00106
- solubility (mole fraction) (in isopropanol, 313.15 K): 0.00119
- solubility (mole fraction) (in isopropanol, 318.15 K): 0.00185
- solubility (mole fraction) (in isopropanol, 323.15 K): 0.00293
- solubility (mole fraction) (in methanol, 298.15 K): 0.0556
- solubility (mole fraction) (in methanol, 303.15 K): 0.0592
- solubility (mole fraction) (in methanol, 308.15 K): 0.061
- solubility (mole fraction) (in methanol, 313.15 K): 0.077
- solubility (mole fraction) (in methanol, 318.15 K): 0.0919
- solubility (mole fraction) (in methanol, 323.15 K): 0.119
- solubility (mole fraction) (in n-butanol, 298.15 K): 0.00177
- solubility (mole fraction) (in n-butanol, 303.15 K): 0.00209
- solubility (mole fraction) (in n-butanol, 308.15 K): 0.00261
- solubility (mole fraction) (in n-butanol, 313.15 K): 0.00352
- solubility (mole fraction) (in n-butanol, 318.15 K): 0.00509
- solubility (mole fraction) (in n-butanol, 323.15 K): 0.00805
- solubility (mole fraction) (in n-propanol, 298.15 K): 0.00275
- solubility (mole fraction) (in n-propanol, 303.15 K): 0.00353
- solubility (mole fraction) (in n-propanol, 308.15 K): 0.00433
- solubility (mole fraction) (in n-propanol, 313.15 K): 0.00563
- solubility (mole fraction) (in n-propanol, 318.15 K): 0.00892
- solubility (mole fraction) (in n-propanol, 323.15 K): 0.0159
- solubility (mole fraction) (in water, 298.15 K): 2.71e-05
- solubility (mole fraction) (in water, 303.15 K): 2.73e-05
- solubility (mole fraction) (in water, 308.15 K): 3.09e-05
- solubility (mole fraction) (in water, 313.15 K): 3.57e-05
- solubility (mole fraction) (in water, 318.15 K): 4.49e-05
- solubility (mole fraction) (in water, 323.15 K): 6.11e-05

— BigSolDB 2.1
